# Results reported in US7846959B2, “Raf modulators and methods of use” (Exelixis, Inc., priority 2004, dated 2010).
# What was measured:
# B-Raf = B-Raf (Homo sapiens, UniProt P15056); assay: Luciferase-coupled chemiluminescence kinase assay (ATP consumption), B-Raf; type: biochemical; settings: read-out: bRaf IC50
# Method: (§1) Tyrosine kinase activity is determined by 1) measurement of kinase-dependent ATP consumption by in the presence of a generic substrate such as […], tyrosine (pEY), by luciferase/luciferin-mediated chemiluminescence or; 2) incorporation of radioactive phosphate derived from ^33P-ATP into a generic substrate which has been adsorbed onto the well surface of polystyrene microtiter plates. Phosphorylated substrate products are quantified by scintillation spectrometry.
# (§2) Luciferase-Coupled Chemiluminescence Assay Protocol
# (§3) Kinase activity is measured as the percent of ATP consumed following the kinase reaction using luciferase-luciferin-coupled chemiluminescence. Reactions were conducted in 384-well white, medium binding microtiter plates (Greiner). Kinase reactions were initiated by combining test compounds, ATP and kinase in a 20 uL volume. The reaction mixture was incubated at ambient temperature for 3 hrs. For c-Raf, B-Raf, and B-RafV599E, […] of the enzyme was pre-incubated with compound in 20 mM Tris pH 7.5, 10 mM MgCl2, 0.03% TX-100, and 1 mM DTT for 30 minutes at room temperature. Following the kinase reaction, a 20 μL aliquot of luciferase-luciferin mix was added and the chemiluminescence signal measured using a Victor^2 plate reader (Perkin Elmer). The luciferase-luciferin mix contained 50 mM HEPES, pH 7.8, 67 mM oxalic acid (pH 7.8), 5 (or 50) mM DTT, 0.4% Triton X-100, 0.25 mg/mL coenzyme A, 63 μM AMP, 28 μg/mL luciferin and 40,000 units/mL luciferase. Total ATP consumption was limited to 25-60% and the IC50 values correlate well with those determined by radiometric assays.
# c-Raf = c-Raf (Homo sapiens, UniProt P04049); assay: Luciferase-coupled chemiluminescence kinase assay (ATP consumption), c-Raf; type: biochemical; settings: read-out: cRaf-1 IC50
# Method: as §1, §2, §3
# Chain of B-Raf (P15056 whole entry): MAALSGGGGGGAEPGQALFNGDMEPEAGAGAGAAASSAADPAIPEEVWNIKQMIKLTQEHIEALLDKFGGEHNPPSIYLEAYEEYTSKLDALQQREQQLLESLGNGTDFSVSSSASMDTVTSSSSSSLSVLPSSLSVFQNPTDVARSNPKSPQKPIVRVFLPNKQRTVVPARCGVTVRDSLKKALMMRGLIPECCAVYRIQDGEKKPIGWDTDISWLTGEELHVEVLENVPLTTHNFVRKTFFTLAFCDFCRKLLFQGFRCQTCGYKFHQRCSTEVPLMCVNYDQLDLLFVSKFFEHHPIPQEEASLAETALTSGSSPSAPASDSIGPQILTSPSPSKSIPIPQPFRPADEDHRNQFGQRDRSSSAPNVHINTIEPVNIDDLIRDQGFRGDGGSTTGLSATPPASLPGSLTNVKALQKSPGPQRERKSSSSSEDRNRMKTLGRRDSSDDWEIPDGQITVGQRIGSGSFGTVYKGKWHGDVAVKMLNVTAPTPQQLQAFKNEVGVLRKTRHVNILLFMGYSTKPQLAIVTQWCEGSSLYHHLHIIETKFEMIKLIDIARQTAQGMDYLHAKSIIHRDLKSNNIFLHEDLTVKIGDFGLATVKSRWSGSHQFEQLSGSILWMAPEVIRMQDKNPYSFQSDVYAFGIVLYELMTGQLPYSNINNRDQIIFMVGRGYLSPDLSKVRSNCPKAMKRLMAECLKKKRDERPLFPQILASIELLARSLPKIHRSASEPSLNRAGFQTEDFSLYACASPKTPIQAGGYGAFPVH
# Chain of c-Raf (P04049 whole entry): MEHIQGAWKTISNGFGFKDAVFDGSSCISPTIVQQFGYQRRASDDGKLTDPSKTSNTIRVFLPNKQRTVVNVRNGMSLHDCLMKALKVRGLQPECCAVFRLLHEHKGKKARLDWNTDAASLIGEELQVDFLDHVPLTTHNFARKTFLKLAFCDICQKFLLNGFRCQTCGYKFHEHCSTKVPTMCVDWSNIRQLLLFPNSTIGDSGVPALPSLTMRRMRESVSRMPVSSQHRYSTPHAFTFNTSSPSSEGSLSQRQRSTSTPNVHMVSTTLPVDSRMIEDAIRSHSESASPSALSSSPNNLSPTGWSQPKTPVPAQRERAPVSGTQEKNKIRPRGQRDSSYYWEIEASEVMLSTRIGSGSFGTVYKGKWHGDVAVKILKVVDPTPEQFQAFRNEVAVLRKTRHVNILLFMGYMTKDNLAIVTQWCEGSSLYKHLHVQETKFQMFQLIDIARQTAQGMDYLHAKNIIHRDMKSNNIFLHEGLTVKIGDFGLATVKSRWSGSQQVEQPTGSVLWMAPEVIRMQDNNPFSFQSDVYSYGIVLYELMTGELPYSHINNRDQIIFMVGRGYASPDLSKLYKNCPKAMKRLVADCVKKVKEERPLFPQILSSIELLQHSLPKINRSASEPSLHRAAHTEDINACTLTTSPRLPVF
SMILES,IC50 (B-Raf) [nM],IC50 (c-Raf) [nM]
"O=C1COc2ccc(C3(O)c4ccccc4C(=O)N3Cc3cccc(OC(F)(F)F)c3)cc2N1 (stereo not drawn) [Entry 56, 6-[1-hydroxy-3-oxo-2-({3-[(trifluoromethyl)oxy]phenyl}methyl)-2,3-dihydro-1H-isoindol-1-yl]-2H-1,4-benzoxazin-3(4H)-one]",≥ 10000,≥ 10000
"CSc1ccccc1CN1C(=O)c2ccccc2C1(O)c1ccc2c(c1)NC(=O)CO2 (stereo not drawn) [Entry 57, 6-(1-hydroxy-2-{[2-(methylthio)phenyl]methyl}-3-oxo-2,3-dihydro-1H-isoindol-1-yl)-2H-1,4-benzoxazin-3(4H)-one]",≥ 10000,≥ 10000
"O=C1COc2ccc(C3(O)c4ccccc4C(=O)N3c3cccc(OC(F)(F)F)c3)cc2N1 (stereo not drawn) [Entry 60, 6-(1-hydroxy-3-oxo-2-{3-[(trifluoromethyl)oxy]phenyl}-2,3-dihydro-1H-isoindol-1-yl)-2H-1,4-benzoxazin-3(4H)-one]",≥ 10000,≥ 10000
"NS(=O)(=O)c1cccc(N2C(=O)c3ccccc3C2(O)c2ccc3c(c2)NC(=O)CO3)c1 (stereo not drawn) [Entry 62, 3-[1-hydroxy-3-oxo-1-(3-oxo-3,4-dihydro-2H-1,4-benzoxazin-6-yl)-1,3-dihydro-2H-isoindol-2-yl]benzenesulfonamide]",≥ 10000,1000 to 10000
"O=C1COc2ccc(C3(O)c4ccccc4C(=O)N3c3ccc(F)c(C(F)(F)F)c3)cc2N1 (stereo not drawn) [Entry 64, 6-{2-[4-fluoro-3-(trifluoromethyl)phenyl]-1-hydroxy-3-oxo-2,3-dihydro-1H-isoindol-1-yl}-2H-1,4-benzoxazin-3(4H)-one]",≥ 10000,≥ 10000
"O=C1c2ccccc2C(O)(c2ccc3cc[nH]c3c2)N1Cc1ccccc1 (stereo not drawn) [Entry 65, 3-hydroxy-3-(1H-indol-6-yl)-2-(phenylmethyl)-2,3-dihydro-1H-isoindol-1-one]",≥ 10000,≥ 10000
"O=C1COc2ccc(C3(O)c4ccccc4C(=O)N3c3cc(F)cc(F)c3)cc2N1 (stereo not drawn) [Entry 68, 6-[2-(3,5-difluorophenyl)-1-hydroxy-3-oxo-2,3-dihydro-1H-isoindol-1-yl]-2H-1,4-benzoxazin-3(4H)-one]",1000 to 10000,1000 to 10000
"CS(=O)(=O)c1cccc(N2C(=O)c3ccccc3C2(O)c2ccc3c(c2)NC(=O)CO3)c1 (stereo not drawn) [Entry 69, 6-{1-hydroxy-2-[3-(methylsulfonyl)phenyl]-3-oxo-2,3-dihydro-1H-isoindol-1-yl}-2H-1,4-benzoxazin-3(4H)-one]",≥ 10000,≥ 10000
"CCOC(=O)c1cccc(N2C(=O)c3ccccc3C2(O)c2ccc3c(c2)NC(=O)CO3)c1 (stereo not drawn) [Entry 70, ethyl 3-[1-hydroxy-3-oxo-1-(3-oxo-3,4-dihydro-2H-1,4-benzoxazin-6-yl)-1,3-dihydro-2H-isoindol-2-yl]benzoate]",≥ 10000,≥ 10000
"N#Cc1cccc(N2C(=O)c3ccccc3C2(O)c2ccc3c(c2)NC(=O)CO3)c1 (stereo not drawn) [Entry 71, 3-[1-hydroxy-3-oxo-1-(3-oxo-3,4-dihydro-2H-1,4-benzoxazin-6-yl)-1,3-dihydro-2H-isoindol-2-yl]benzonitrile]",1000 to 10000,1000 to 10000
"O=C1COc2ccc(C3(O)c4ccccc4C(=O)N3c3ccccc3Cl)cc2N1 (stereo not drawn) [Entry 72, 6-[2-(2-chlorophenyl)-1-hydroxy-3-oxo-2,3-dihydro-1H-isoindol-1-yl]-2H-1,4-benzoxazin-3(4H)-one]",1000 to 10000,1000 to 10000
"O=C1COc2ccc(C3(O)c4ccccc4C(=O)N3c3cccc(O)c3)cc2N1 (stereo not drawn) [Entry 78, 6-[1-hydroxy-2-(3-hydroxyphenyl)-3-oxo-2,3-dihydro-1H-isoindol-1-yl]-2H-1,4-benzoxazin-3(4H)-one]",1000 to 10000,1000 to 10000
"O=C1COc2ccc(C3(O)c4ccccc4C(=O)N3c3cccc(Oc4ccccc4)c3)cc2N1 (stereo not drawn) [Entry 79, 6-{1-hydroxy-3-oxo-2-[3-(phenyloxy)phenyl]-2,3-dihydro-1H-isoindol-1-yl}-2H-1,4-benzoxazin-3(4H)-one]",1000 to 10000,100 to 1000

# Next, values leading:
IC50 (B-Raf) [nM],IC50 (c-Raf) [nM],SMILES
1000 to 10000,1000 to 10000,"O=C1COc2ccc(C3(O)c4ccccc4C(=O)N3c3ccc(F)c(F)c3)cc2N1 (stereo not drawn) [Entry 58, 6-[2-(3,4-difluorophenyl)-1-hydroxy-3-oxo-2,3-dihydro-1H-isoindol-1-yl]-2H-1,4-benzoxazin-3(4H)-one]"
100 to 1000,100 to 1000,"CC(C)c1cccc(N2C(=O)c3ccccc3C2(O)c2ccc3c(c2)NC(=O)CO3)c1 (stereo not drawn) [Entry 59, 6-{1-hydroxy-2-[3-(1-methylethyl)phenyl]-3-oxo-2,3-dihydro-1H-isoindol-1-yl}-2H-1,4-benzoxazin-3(4H)-one]"
1000 to 10000,100 to 1000,"O=C1COc2ccc(C3(O)c4ccccc4C(=O)N3c3cccc(C(F)(F)F)c3)cc2N1 (stereo not drawn) [Entry 61, 6-{1-hydroxy-3-oxo-2-[3-(trifluoromethyl)phenyl]-2,3-dihydro-1H-isoindol-1-yl}-2H-1,4-benzoxazin-3(4H)-one]"
1000 to 10000,≥ 10000,"COc1ccc(Cl)cc1N1C(=O)c2ccccc2C1(O)c1ccc2c(c1)NC(=O)CO2 (stereo not drawn) [Entry 63, 6-{2-[5-chloro-2-(methyloxy)phenyl]-1-hydroxy-3-oxo-2,3-dihydro-1H-isoindol-1-yl}-2H-1,4-benzoxazin-3(4H)-one]"
1000 to 10000,1000 to 10000,"O=C1COc2ccc(C3(O)c4ccccc4C(=O)N3c3cc(F)cc(I)c3)cc2N1 (stereo not drawn) [Entry 66, 6-[2-(3-fluoro-5-iodophenyl)-1-hydroxy-3-oxo-2,3-dihydro-1H-isoindol-1-yl]-2H-1,4-benzoxazin-3(4H)-one]"
100 to 1000,100 to 1000,"Nc1cccc(N2C(=O)c3ccccc3C2(O)c2ccc3c(c2)NC(=O)CO3)c1 (stereo not drawn) [Entry 67, 6-[2-(3-aminophenyl)-1-hydroxy-3-oxo-2,3-dihydro-1H-isoindol-1-yl]-2H-1,4-benzoxazin-3(4H)-one]"
< 100,< 100,"Nc1cc(Cl)cc(N2C(=O)c3ccccc3C2(O)c2ccc3c(c2)NC(=O)CO3)c1 (stereo not drawn) [Entry 73, 6-[2-(3-amino-5-chlorophenyl)-1-hydroxy-3-oxo-2,3-dihydro-1H-isoindol-1-yl]-2H-1,4-benzoxazin-3(4H)-one]"
< 100,< 100,"Cc1ccc(Cl)cc1N1C(=O)c2ccccc2C1(O)c1ccc2c(c1)NC(=O)CO2 (stereo not drawn) [Entry 74, 6-[2-(5-chloro-2-methylphenyl)-1-hydroxy-3-oxo-2,3-dihydro-1H-isoindol-1-yl]-2H-1,4-benzoxazin-3(4H)-one]"
100 to 1000,100 to 1000,"Cc1c(Cl)cccc1N1C(=O)c2ccccc2C1(O)c1ccc2c(c1)NC(=O)CO2 (stereo not drawn) [Entry 75, 6-[2-(3-chloro-2-methylphenyl)-1-hydroxy-3-oxo-2,3-dihydro-1H-isoindol-1-yl]-2H-1,4-benzoxazin-3(4H)-one]"
100 to 1000,100 to 1000,"CCc1cccc(N2C(=O)c3ccccc3C2(O)c2ccc3c(c2)NC(=O)CO3)c1 (stereo not drawn) [Entry 76, 6-[2-(3-ethylphenyl)-1-hydroxy-3-oxo-2,3-dihydro-1H-isoindol-1-yl]-2H-1,4-benzoxazin-3(4H)-one]"
100 to 1000,100 to 1000,"C#Cc1cccc(N2C(=O)c3ccccc3C2(O)c2ccc3c(c2)NC(=O)CO3)c1 (stereo not drawn) [Entry 77, 6-[2-(3-ethynylphenyl)-1-hydroxy-3-oxo-2,3-dihydro-1H-isoindol-1-yl]-2H-1,4-benzoxazin-3(4H)-one]"
